Patent US11299467B2 (Antabio SAS, priority 2017, dated 2022)
Like-named read-outs stand apart in the source and are kept apart here.

Columns and labels:
[1] = PK study, i.v. dosing in mice; type: in vivo, male Swiss albino mice; settings: i.v. 1 mg/kg; for AUC / C0 / clearance: mouse, plasma, iv, male Swiss albino mice; for AUC: read-out: AUC (area under the curve); for C0: read-out: C0 (plasma concentration); for clearance: read-out: Cl (clearance)
Experimental: Compound A and Example 7 were dosed i.v. at 1 mg/kg to male Swiss albino mice.

[2] = Plasma stability of test compounds in human plasma; type: in vitro ADME; settings: 1 μM, 37° C.
Experimental: [table] Test compound and QC compound were incubated at a final concentration of 1 μM in plasma at 37° C. in shaker water bath with gentle shaking. At predetermined time points, reaction was terminated with 200 μL of acetonitrile containing internal standard and centrifuged at 4000×RCF, 4° C. for 20 minutes. Supernatant was separated and analyzed by LC-MS/MS. The following equation was used to determine the percentage remaining of test/QC compound following the procedure above: […]

[3] = Plasma protein binding, rapid equilibrium dialysis, human plasma; type: in vitro ADME; settings: 100% plasma, 5 h equilibrium dialysis
Experimental: [table] Test compound was spiked in plasma to a final concentration of 10 μM. An aliquot of 300 μL of plasma was placed in red chamber of the insert and 500 μL of PBS was placed into white chamber of the insert. The plate was incubated at 37° C. in thermomixer at 400 rpm for 5 hours. After incubation, the samples were matrix equilibrated with opposite matrix (10 μL of plasma/100 μL of buffer sample was matched with 100 μL of blank buffer/10 μL of plasma). Matrix matched samples were precipitated with 200 μL of acetonitrile containing internal standard. Samples were vortexed at 1000 rpm for 5 min and centrifuged at 4000 rpm for 10 min. Supernatant was separated, diluted 2 fold with water and analyzed on LC-MS/MS. Blank control samples were processed immediately after the preparation of plasma working stock solutions. These samples served as a measure for calculating the % recovery of test compounds. The percent plasma bound fraction was calculated by the following equations: % Unbound=100*FC/TC % Recovery=100*(FC+TC)/T0 where • TC=Total compound concentration as determined by the calculated concentration on the plasma side of the membrane • FC=Free compound concentration as determined by the calculated concentration on the buffer side of the membrane • T0=Total compound concentration as determined before dialysis For each set of duplicates/compound, the percentage bound, percentage unbound and percentage recovery was determined.

K. pneumoniae NTBC104 = test: In vivo efficacy, mouse thigh infection with K. pneumoniae NTBC104; settings: meropenem 30 mg/kg plus compound 30 mg/kg, 9 hours post infection
Experimental: (§1) Mice were infected in the thigh with K. pneumoniae NTBC104. […] The MIC of meropenem in the presence of 8 ug/mL of the compound of Example 2 is 4 ug/mL.
At the end of the experiment (9 hours post infection) the animals were sacrificed and the numbers of colony forming units (CFUs) were measured in order to quantify bacterial load (extent of the infection).

VIM-2 = VIM-2 (Escherichia coli, UniProt Q5U7L7); test: In vitro enzyme inhibition assay, purified VIM-2 (imipenem hydrolysis, UV 299 nm); type: biochemical
Experimental: (§2) Enzyme inhibition assays were performed using purified MBL enzymes (NDM-1; VIM-1; VIM-2; IMP-1) in 10 mM HEPES buffer pH 7.5 in 96-well microtiter plates. Imipenem (300 μM) was used as substrate and its hydrolysis was followed at UV 299 nm during 10 mn every 30 seconds using a Perkin Elmer Envision UV fluorescence plate reader.
(§3) Mean Ki values from multiple experiments are presented below.
(§4) Studies were undertaken to compare the compounds of the invention with structurally similar compounds (“Comp. x”). Experiments were conducted as described above.

NDM-1 = NDM-1 (Klebsiella pneumoniae, UniProt C7C422); test: In vitro enzyme inhibition assay, purified NDM-1 (imipenem hydrolysis, UV 299 nm); type: biochemical
Experimental: as §2, §3, §4

IMP-1 = IMP-1 (Serratia marcescens, UniProt P52699); test: In vitro enzyme inhibition assay, purified IMP-1 (imipenem hydrolysis, UV 299 nm); type: biochemical
Experimental: as §2, §3, §4

VIM-1 = VIM-1 (Pseudomonas aeruginosa, UniProt A0A0F7KYQ8); test: In vitro enzyme inhibition assay, purified VIM-1 (imipenem hydrolysis, UV 299 nm); type: biochemical
Experimental: as §2, §3, §4

[4] = system: NTBC104-1 (K. pneumoniae strain expressing NDM-1 and SHV-11); test: Meropenem MIC, broth micro-dilution, NTBC104-1; type: cell-based; settings: 8 ug/mL of the compound
Experimental: The experiments were carried out using the ‘broth micro-dilution method’ according to the protocols M07-A8 established by the Clinical Laboratory Standards Institute (CLSI). Serial dilutions of the β-lactam antibiotic (Meropenem) were prepared in 96-well plates in cation-adjusted Mueller-Hinton broth (CAMHB); the concentration range was defined from 0.03 mg/L to 512 mg/L. The compounds were added at a constant concentration of 8 μg/mL. A bacterial inoculum of each strain (clinical isolates) was adjusted to a 0.5 McFarland turbidity standard in physiologic serum (0.9% NaCl), then diluted 1:100 in CAMHB and added to each well to give a final bacterial cell number of 5×10^5 CFU/well. After incubation for 18-20 hours in a heating chamber at 37° C., the growth inhibition was evaluated by the absence of any bacterial development.
Compounds of the invention were tested at a constant concentration of 8 μg/mL. The clinical strains used in these potentiation experiments were NTBC020 (E. coli strain expressing NDM-1, TEM-1 and CTX-M-15); NTBC035-2 (K. pneumoniae strain expressing NDM-1, CMY-4 and SHV-11); NTBC104-1 (K. pneumoniae strain expressing NDM-1 and SHV-11); NTBC123 (K. pneumoniae strain expressing NDM-1); NTBC018 (C. freundii strain expressing VIM-2); NTBC024 (K. pneumoniae strain expressing VIM-19, TEM-1 and CTX-M-3); NTBC042 (E. coli strain expressing VIM-1, TEM-1, CTX-M-15, SHV-12); NTBC055 (E. Coli strain expressing VIM-1); NTBC062 (K. pneumoniae strain expressing IMP-1 and TEM-1) and NTBC039 (K. oxytoca strain expressing IMP-28).
as §1
Experiments were carried out using the ‘broth micro-dilution method’ according to the protocols M07-A8 established by the Clinical Laboratory Standards Institute (CLSI). […] After incubation for 18-20 hours in a heating chamber at 37° C., the growth inhibition was evaluated by the absence of any bacterial development. […]

[5] = mean Ki from multiple experiments, imipenem 300 μM, Cheng-Prusoff from IC50, read-out: Ki VIM-2
[6] = mean Ki from multiple experiments, imipenem 300 μM, Cheng-Prusoff from IC50, read-out: Ki NDM-1
[7] = mean Ki from multiple experiments, imipenem 300 μM, Cheng-Prusoff from IC50, read-out: Ki IMP-1
[8] = mean Ki from multiple experiments, imipenem 300 μM, Cheng-Prusoff from IC50, read-out: Ki VIM-1
[9] = comparative study bands, read-out: Ki VIM-2 (comparative study)
[10] = comparative study bands, read-out: Ki NDM-1 (comparative study)
[11] = comparative study bands, read-out: Ki IMP-1 (comparative study)
[12] = comparative study bands, read-out: Ki VIM-1 (comparative study)

Chain of NDM-1 (C7C422 29-270, looked up): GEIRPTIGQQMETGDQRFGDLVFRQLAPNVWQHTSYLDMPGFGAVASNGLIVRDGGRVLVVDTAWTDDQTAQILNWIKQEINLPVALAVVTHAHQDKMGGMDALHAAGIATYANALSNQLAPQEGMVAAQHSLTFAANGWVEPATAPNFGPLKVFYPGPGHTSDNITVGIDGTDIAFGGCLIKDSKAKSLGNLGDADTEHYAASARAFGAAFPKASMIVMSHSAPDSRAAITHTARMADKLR
Chain of IMP-1 (P52699 19-246, looked up, species assumed): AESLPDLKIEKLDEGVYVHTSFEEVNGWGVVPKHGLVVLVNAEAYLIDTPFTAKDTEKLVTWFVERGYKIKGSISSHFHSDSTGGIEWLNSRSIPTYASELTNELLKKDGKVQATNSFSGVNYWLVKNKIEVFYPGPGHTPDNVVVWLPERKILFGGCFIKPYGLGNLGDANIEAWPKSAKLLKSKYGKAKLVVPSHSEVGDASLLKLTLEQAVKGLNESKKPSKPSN

SMILES: NCC(=O)Nc1ccc(S(=O)(=O)Nc2scnc2C(=O)O)cc1F [Comp. A, reference compound]
- AUC [1]: 9 ng·h/mL
- C0 [1]: 17 ng/mL
- clearance [1]: 819 mL/min/kg
- Stability in human plasma, % remaining ([2]; after 2 hours): 29% remaining after 2 hours
- fraction unbound at 5 h, 10 μM [3]: 0.097

SMILES: N=C(N)NNC(=O)Nc1c(F)cc(S(=O)(=O)Nc2scnc2C(=O)O)cc1F [Example 26, 5-[[3,5-difluoro-4-(guanidinocarbamoylamino)phenyl]sulfonylamino]thiazole-4-carboxylic acid]
- Log10 reduction in CFUs compared to meropenem alone (K. pneumoniae NTBC104): 1.8 Log10
- Ki (VIM-2; [5]): 20 to 50 nM
- Ki (NDM-1; [6]): < 50 nM
- Ki (IMP-1; [7]): 1000 to 10000 nM
- Ki (VIM-1; [8]): 200 to 500 nM

SMILES: NCC(=O)Nc1c(F)cc(S(=O)(=O)Nc2scnc2C(=O)O)cc1F [Comp. B, reference compound]
- Stability in human plasma, % remaining ([2]; after 5 hours): 0% remaining after 5 hours
- Ki (VIM-2; [9]): 100 to 150 nM
- Ki (NDM-1; [10]): < 30 nM
- Ki (IMP-1; [11]): 600 to 5000 nM
- Ki (VIM-1; [12]): 300 to 500 nM

SMILES: N=C(N)NCC(=O)Nc1c(F)cc(S(=O)(=O)Nc2scnc2C(=O)O)cc1F [Example 2, 5-[[3,5-difluoro-4-[(2-guanidinoacetyl)amino]phenyl]sulfonylamino]thiazole-4-carboxylic acid]
- Log10 reduction in CFUs compared to meropenem alone (K. pneumoniae NTBC104): 1.6 Log10
- Stability in human plasma, % remaining ([2]; after 2 hours): 73% remaining after 2 hours
- fraction unbound at 5 h, 10 μM [3]: 0.19
- MIC of meropenem in the presence of the compound, K. pneumoniae NTBC104 [4]: 4 µg/mL
- Ki (VIM-2; [9]): 50 to 100 nM
- Ki (VIM-2; [5]): 50 to 150 nM
- Ki (NDM-1; [10]): < 30 nM
- Ki (NDM-1; [6]): < 50 nM
- Ki (IMP-1; [11]): 600 to 5000 nM
- Ki (IMP-1; [7]): 1000 to 10000 nM
- Ki (VIM-1; [12]): 300 to 500 nM
- Ki (VIM-1; [8]): 200 to 500 nM

SMILES: N=C(N)NCC(=O)Nc1ccc(S(=O)(=O)Nc2scnc2C(=O)O)cc1F [Example 7, 5-[[3-fluoro-4-[(2-guanidinoacetyl)amino]phenyl]sulfonylamino]thiazole-4-carboxylic acid]
- AUC [1]: 1040 ng·h/mL
- C0 [1]: 1810 ng/mL
- clearance [1]: 16 mL/min/kg
- cleared from the blood slower than Compound A ([1]; same dosage, mice): about 50 fold
- exposure (AUC) compared to Compound A ([1]; same dosage, mice): > 100 fold
- maximum concentration compared to Compound A ([1]; same dosage, mice): > 100 fold
- Log10 reduction in CFUs compared to meropenem alone (K. pneumoniae NTBC104): 1.7 Log10
- Stability in human plasma, % remaining ([2]; after 5 hours): 100% remaining after 5 hours
- fraction unbound at 5 h, 10 μM [3]: 0.392
- Ki (VIM-2; [5]): 50 to 150 nM
- Ki (NDM-1; [6]): 50 to 200 nM
- Ki (IMP-1; [7]): 1000 to 10000 nM
- Ki (VIM-1; [8]): 200 to 500 nM
